Structures are written as SMILES. A value given as a limit tells only on which side of the number the result lay.

From US8809372B2, “Pyridine derivatives” (Endo Pharmaceuticals, Inc., priority 2011, dated 2014) come the findings set out here.

Assay [1] addresses T1, rat CYP17 (rat testicular microsomes) (Rattus norvegicus, UniProt P11715).
T1 construct: Rat testis tissue was collected and disrupted with 30 strokes of a glass homogenizer; from tissue; host or cells: rat testis (microsomes)
T1 sequence (P11715 1-507): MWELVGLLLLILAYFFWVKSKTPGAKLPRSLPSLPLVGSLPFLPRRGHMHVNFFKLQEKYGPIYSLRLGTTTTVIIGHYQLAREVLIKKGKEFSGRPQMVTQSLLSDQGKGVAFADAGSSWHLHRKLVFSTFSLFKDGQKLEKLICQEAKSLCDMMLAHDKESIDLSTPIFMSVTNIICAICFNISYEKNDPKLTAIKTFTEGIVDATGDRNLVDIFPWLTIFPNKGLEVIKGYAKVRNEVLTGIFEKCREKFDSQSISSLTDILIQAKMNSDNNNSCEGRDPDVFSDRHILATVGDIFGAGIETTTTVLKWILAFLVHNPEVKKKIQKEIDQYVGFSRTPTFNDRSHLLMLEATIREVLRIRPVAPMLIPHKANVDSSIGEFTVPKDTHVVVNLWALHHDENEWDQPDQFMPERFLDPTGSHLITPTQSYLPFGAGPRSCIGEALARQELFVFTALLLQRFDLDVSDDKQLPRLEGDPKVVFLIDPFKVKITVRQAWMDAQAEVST
The experiment in a line: CYP17 inhibition assay in rat testicular microsomes. Type of assay: biochemical. How it is done:
CYP17 Inhibition Assay in Rat Testicular Microsomes (Rat CYP17) or Yeast Microsome Overexpressing Human CYP17
1. NADPH (Sigma): A working stock was prepared by adding 25 μL of 6.5 mM NADPH in each tube. The final concentration of NADPH used in the assay was 325 μM.
2. Potassium Phosphate Buffer: One molar (1M) solutions of K2HPO4 and KH2PO4 were prepared. Eight mL of the 1 M KH2PO4 and 1.98 mL of the 1 M K2HPO4 were combined and the pH was adjusted to 7.4.
3. ^3H3-17α-hydroxypregnenolone (American Radiolabeled Chemicals, Inc., stock 1 μCi/μL): A 1:1 dilution of ^3H3-17α-hydroxypregnenolone in ethanol was prepared by combining 100 μL ^3H3-17α-hydroxypregnenolone+100 μL ethanol for one complete 96 well plate. For the reaction, 2 μL of the diluted ^3H3-17α-hydroxypregnenolone was added in each tube, i.e., 1 μCi/reaction. 4. Microsome Isolation Buffer: The microsome isolation buffer was prepared by combining 250 mM Sucrose, 5 mM EDTA, 10 mM Tris HCl, 4 mM DTT, and adjusting to pH 7.4. 5. TEG Buffer: The TEG buffer was prepared by combining 50 mM Tris HCl, 1 mM EDTA, and 20% Glycerol. 6. Rat Testicular Microsomes: Rat testis tissue was collected and disrupted with 30 strokes of a glass homogenizer on ice with 250 μL of microsome isolation buffer, followed by centrifugation at 10,000 g for 10 minutes at 4° C. The supernatant was collected and centrifuged at 100,000 g for 45 minutes at 4° C. The pellet was dissolved in TEG Buffer and the protein was quantified. The homogenized microsome samples were then frozen at −80° C. • 7. Yeast Microsomes which overexpress the human CYP17 enzyme were obtained from Premas Biotech, India.
Potassium phosphate buffer (470 μL) was prepared as described above and was added to each well of a deep well plate. The test compound was diluted using a TECAN liquid handler and 5 μL of diluted compound was transferred to each well (96 deep well/1 mL). A solution (25 μL) of 6.5 mM NADPH was added (final concentration of 325 μM in the assay). ^3H3-17α-hydroxypregnenolone (2 μL of the working stock) was added to each tube. The plates were then pre-incubated for 15 minutes at 37° C. Following the pre-incubation, either 5 μL rat testicular microsomes (150-160 μg) or 5 μL of yeast microsomes expressing human CYP17 (1.7 pmol), was added. Incubation was at 37° C. for 60 minutes in the presence of oxygen. The plates were then placed in ice and chloroform (500 μL) was added, mixed well and incubated at 4° C. for 20 minutes. The plates were then centrifuged at 1000 rpm for 15 minutes at 4° C.
A portion (300 μL) of the aqueous solution was collected and mixed with a 5% aqueous suspension of activated charcoal (300 μL). The plates were then incubated at 4° C. for 30 minutes, after which the plates were centrifuged at 1000 rpm for 15 minutes at 4° C. From this, 125 μL of the aqueous solution was collected and plated into a 96 well plate. Microscint™ 40 [125 μL, Perkin-Elmer; containing a mixture of a polymer based on alkylphenolethoxylate (20-40%), diethanolamine-phosphoric acid ester ammonium salt (10-20%), sodium dioctyl sulphosuccinate (2.5-10%), triethyl phosphate (2.5-10%), 3,6-dimethyl-4-octyne-3,6-diol (≦2.5%), a polymer based on nonylphenolethoxylate (≦2.5%), diisopropyl naphthalene isomers (40-60%), 2,5-diphenyloxazole (≦2.5%), and 9,10-dimethylanthracene] was added and mixed well. After 30 minutes of incubation, the samples were analyzed with a MicroBeta® Trilux microplate liquid scintillation counter and luminometer (Perkin-Elmer).

Assay [2] concerns the target T2, human CYP17 in H295R adrenocortical carcinoma cells (Homo sapiens, UniProt P05093).
T2 construct: H295R Adrenocortical carcinoma cells [NCI-H295A, ATCC Number CRL-2128, American Type Culture Collection; host or cells: H295R adrenocortical carcinoma cells
T2 sequence (P05093 1-508): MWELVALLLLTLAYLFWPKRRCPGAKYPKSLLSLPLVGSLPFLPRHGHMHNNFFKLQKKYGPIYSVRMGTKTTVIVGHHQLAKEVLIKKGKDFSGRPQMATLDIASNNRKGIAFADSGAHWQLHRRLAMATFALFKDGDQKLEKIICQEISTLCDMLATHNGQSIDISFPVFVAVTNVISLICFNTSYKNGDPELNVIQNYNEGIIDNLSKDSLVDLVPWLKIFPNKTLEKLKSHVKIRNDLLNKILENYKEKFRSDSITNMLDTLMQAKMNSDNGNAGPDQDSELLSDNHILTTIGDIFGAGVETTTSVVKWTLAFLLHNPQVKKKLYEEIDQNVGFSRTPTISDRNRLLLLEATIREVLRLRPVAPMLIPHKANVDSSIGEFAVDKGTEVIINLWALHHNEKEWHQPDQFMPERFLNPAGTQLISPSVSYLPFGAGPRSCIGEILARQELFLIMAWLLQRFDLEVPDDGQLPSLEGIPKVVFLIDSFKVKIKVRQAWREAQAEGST
Nature of the assay: Cell-based human CYP17 inhibition assay, H295R cells. The note with it: 16 hours, read-out: CYP17 (human H295R adrenal cells). As to the method: Cell-Based Human CYP17 Inhibition Assay
1. H295R Adrenocortical Carcinoma Cells and Growth Media: The media for the H295R Adrenocortical carcinoma cells [NCI-H295A, ATCC Number CRL-2128, American Type Culture Collection, Manassas, Va., US] (500 mL) was a DMEM:F12 Mix 1:1 with 5% (2 mL) BD Nu Serum; 1% (5 mL) ITS+Premix [BD Biosciences] and 1% Penstrep. 2. LNCap-CYP17 Cells and Growth Media: Full length hCYP17a1 gene (NCBI Reference Sequence: NM_000102.3) was cloned in pcDNA3.1(+) vector between HindIII and XhoI site. The pcDNA3.1(+) vector contains the Neomycin resistance gene and was used for selection of stable cell line. The hCYP17a1 containing pcDNA3.1(+) was transfected into LNCap cells to create the LNCap-CYP17 cell line. The media for the LNCaP-CYP17 cells was RPMI 1640, 10% FBS, 1% PenStrep, Geneticin 400 μg/mL.
The H295R cells or LNCaP-hCYP17 cells were subcultured and 30,000 cells per well were seeded in a poly-d lysine plate and incubated overnight at 37° C. The next day the media was removed and 200 μL of fresh media with ^3H3-17α-hydroxy-pregnenolone (1:1000) was added. 50 μL of serially diluted compounds from a 5× plate (5 times the final desired concentration) was added. The working concentration range for active, new compounds started from a high concentration of 10 μM with 3-fold serial dilutions generating up to 10 concentrations. The serial dilution in the 100× plate (in DMSO) and the stamping of a 5× plate (in media) from the 100× plate were carried out using a TECAN liquid handling device.
The plates were incubated overnight (16 hours) at 37° C. After 16 hours, the media was removed (approximately 220 μL) and an equal amount of chloroform was added, mixed and incubated for 30 minutes at 4 degrees. The plate was centrifuged at 4000 rpm for 15 minutes at 4° C., following which the top aqueous layer was carefully removed and added into a new deep well plate. An equal volume of activated 5% charcoal was added, mixed and incubated for 30 minutes at 4° C. The plate was then centrifuged at 4000 rpm for 15 minutes at 4° C. and the top layer carefully separated, avoiding any charcoal contamination, and placed in a white, clear bottom plate (plate cat #3610, Corning Life Sciences). An equal volume of Microscint™ 40 was added and mixed well. Following the incubation for 30 minutes, readings for the radiotracer were taken using a Microbeta® trilux.

Turning to `CC(O)(c1ccncc1)c1ncc(-c2ccc(F)cc2)s1` (single isomer, unassigned; (-)) [Example 54, (−)-1-(5-(4-fluorophenyl)thiazol-2-yl)-1-(pyridin-4-yl)ethanol], the IC50 in assay [1] and in assay [2] was less than 50 nM throughout.

Consider `CC(O)(c1ccncc1)c1cnc(-c2ccc(F)c(F)c2)s1` (stereo not drawn) [Example 44, 1-(2-(3,4-difluorophenyl)thiazol-5-yl)-1-(pyridin-4-yl)ethanol], for which the IC50 in assay [1] and in assay [2] was less than 50 nM in each case.

For the compound `Cn1cc(-c2ccc(C(C)(O)c3ccncc3)o2)ccc1=O` (stereo not drawn) [Example 58, 5-(5-(1-hydroxy-1-(pyridin-4-yl)ethyl)furan-2-yl)-1-methylpyridin-2(1H)-one], the IC50 lay within 50 to 200 nM in assay [1] and 201 to 10000 nM in assay [2].

Consider `CC(=O)NC(C)(c1ccncc1)c1cnc(-c2ccc(F)cc2)s1` (stereo not drawn) [Example 69, N-(1-(2-(4-Fluorophenyl)thiazol-5-yl)-1-(pyridin-4-yl)ethyl)acetamide], for which the IC50 was in the range of 50 to 200 nM in assay [1] and 201 to 10000 nM in assay [2].

In the case of `CC(O)(c1ccncc1)c1cnc(-c2cncnc2)s1` (stereo not drawn) [Example 64, 1-(pyridin-4-yl)-1-(2-(pyrimidin-5-yl)thiazol-5-yl)ethanol], the figures for the IC50 in assay [1] and in assay [2] were less than 50 nM and 201 to 10000 nM, respectively.

Take `CC(O)(c1ccncc1)c1nsc(-c2ccc(F)cc2)n1` (stereo not drawn) [Example 53, 1-(5-(4-fluorophenyl)-1,2,4-thiadiazol-3-yl)-1-(pyridin-4-yl)ethanol]: the figures for the IC50 in assay [1] and in assay [2] were 50 to 200 nM and 201 to 10000 nM, respectively.

For the compound `CC(O)(c1ccncc1)c1ccc(-c2ccc(C#N)nc2)cn1` (stereo not drawn) [Example 12, 6′-(1-Hydroxy-1-(pyridin-4-yl)ethyl)-[3,3′-bipyridine]-6-carbonitrile], the IC50 in assay [1] was less than 50 nM; in assay [2], 50 to 200 nM.

As to `COc1ccc(-c2ccc(C(C)(O)c3ccncc3)nc2)cc1F` (stereo not drawn) [Example 6, 1-(5-(3-fluoro-4-methoxyphenyl)-pyridin-2-yl)-1-(pyridin-4-yl)ethanol], the IC50 is less than 50 nM in assay [1] and 50 to 200 nM in assay [2].

Take `CCC(O)(c1ccncc1)c1cnc(-c2cn[nH]c2)s1` (stereo not drawn) [Example 18, 1-(2-(1H-Pyrazol-4-yl)thiazol-5-yl)-1-(pyridin-4-yl)propan-1-ol]: the IC50 in assay [1] and in assay [2] was less than 50 nM throughout.

`CC(O)(c1ccncc1)c1nc(-c2ccc(F)cc2)ns1` (stereo not drawn) [Example 52, 1-(3-(4-fluorophenyl)-1,2,4-thiadiazol-5-yl)-1-(pyridin-4-yl)ethanol]: the IC50 in assay [1] and in assay [2] was less than 50 nM in each case.

For `CC(O)(c1ccncc1)c1noc(-c2ccc(F)cc2)n1` (stereo not drawn) [Example 29, 1-(5-(4-Fluorophenyl)-1,2,4-oxadiazol-3-yl)-1-(pyridin-4-yl)ethanol], the IC50 was less than 50 nM in assay [1] and 201 to 10000 nM in assay [2].

In the case of `CC(=O)OC(C)(c1ccncc1)c1cnc(-c2ccc(F)cc2)s1` (stereo not drawn) [Example 65, 1-(2-(4-Fluorophenyl)thiazol-5-yl)-1-(pyridin-4-yl)ethyl acetate], the IC50 in assay [1] is less than 50 nM.

For `CCCC(=O)OC(C)(c1ccncc1)c1cnc(-c2ccc(F)cc2)s1` (stereo not drawn) [Example 67, 1-(2-(4-fluorophenyl)thiazol-5-yl)-1-(pyridin-4-yl)ethyl butyrate], the IC50 in assay [1] is less than 50 nM.

`CCC(=O)OC(C)(c1ccncc1)c1cnc(-c2ccc(F)cc2)s1` (stereo not drawn) [Example 66, 1-(2-(4-fluorophenyl)thiazol-5-yl)-1-(pyridin-4-yl)ethyl propionate] showed an IC50 in assay [1] of less than 50 nM.

Take `CCC(O)(c1ccncc1)c1cnc(-c2cn[nH]c2)s1` (single isomer, unassigned; (+)) [Example 20, (+)-1-[2-(1H-pyrazol-4-yl)-1,3-thiazol-5-yl]-1-pyridin-4-ylpropan-1-ol]: in assay [1], the IC50 was 201 to 10000 nM.

With `CC(O)(c1ccncc1)c1cnc(-c2ccc(F)nc2)s1` (stereo not drawn) [Example 22, 1-(2-(6-Fluoropyridin-3-yl)thiazol-5-yl)-1-(pyridin-4-yl)ethanol], in assay [1], the IC50 fell in the range of 201 to 10000 nM.
